Experimental data as given in ChEMBL document CHEMBL5584333, “Evo312: An Evodiamine Analog and Novel PKCβI Inhibitor with Potent Antitumor Activity in Gemcitabine-Resistant Pancreatic Cancer” (J Med Chem, 2024).
Active and inactive are the calls of the source. No cut-off for these calls is given here.

How the values were obtained:
[1] = test system: Gemcitabine-resistant PANC-1; assay: Induction of apoptosis in human Gemcitabine-resistant PANC-1 cells assessed as total cell death at 80 nM incubated for 48 hrs by Annexin V-FITC/PI staining based flow cytometric analysis relative to control; assay type: functional
[2] = test system: Gemcitabine-resistant PANC-1; assay: Antitumor activity against human Gemcitabine-resistant PANC-1 cells xenografted in male BALB/c nude mouse assessed as reduction in tumor weight at 10 mg/kg, ip administered three times in a week for 20 days relative to control; assay type: functional; parameters: scale not given: the % may be the effect or the level left; conditions: time 20 day
[3] = test system: Gemcitabine-resistant PANC-1; assay: Downregulation of PKCdelta expression in human Gemcitabine-resistant PANC-1 cells at 40 to 160 nM incubated for 24 hrs by Western blotting; assay type: functional, cell-based; conditions: dose 40-160 nM
[4] = test system: Gemcitabine-resistant PANC-1; assay: Downregulation of p-PRAS40 expression in human Gemcitabine-resistant PANC-1 cells at 40 to 160 nM incubated for 24 hrs by Western blotting; assay type: functional, cell-based; conditions: dose 40-160 nM
[5] = test system: Gemcitabine-resistant PANC-1; assay: Downregulation of p-p70S6K expression in human Gemcitabine-resistant PANC-1 cells at 40 to 160 nM incubated for 24 hrs by Western blotting; assay type: functional, cell-based; conditions: dose 40-160 nM
[6] = test system: Gemcitabine-resistant PANC-1; assay: Induction of cell cycle arrest in human Gemcitabine-resistant PANC-1 cells assessed as downregulation of cyclin D1 protein expression level at 40 to 160 nM incubated for 24 hrs by Western blot analysis; assay type: functional, cell-based; conditions: dose 40-160 nM
[7] = test system: Gemcitabine-resistant PANC-1; assay: Downregulation of p-Akt expression in human Gemcitabine-resistant PANC-1 cells at 40 to 160 nM incubated for 24 hrs by Western blotting; assay type: functional, cell-based; conditions: dose 40-160 nM
[8] = test system: Gemcitabine-resistant PANC-1; assay: Downregulation of p-GSK3beta expression in human Gemcitabine-resistant PANC-1 cells at 40 to 160 nM incubated for 24 hrs by Western blotting; assay type: functional, cell-based; conditions: dose 40-160 nM
[9] = target: T1, Protein kinase C beta type (Homo sapiens, UniProt P05771); assay: Inhibition of recombinant full length N-terminal GST-tagged human PKCbeta1 expressed in baculovirus infected Sf9 insect cells using ERMRPRKRQGSVRRRV as substrate incubated for 60 mins in presence of ATP by ADP-glo reagent based luminometric analysis
Target sequence in this assay (P05771 whole entry): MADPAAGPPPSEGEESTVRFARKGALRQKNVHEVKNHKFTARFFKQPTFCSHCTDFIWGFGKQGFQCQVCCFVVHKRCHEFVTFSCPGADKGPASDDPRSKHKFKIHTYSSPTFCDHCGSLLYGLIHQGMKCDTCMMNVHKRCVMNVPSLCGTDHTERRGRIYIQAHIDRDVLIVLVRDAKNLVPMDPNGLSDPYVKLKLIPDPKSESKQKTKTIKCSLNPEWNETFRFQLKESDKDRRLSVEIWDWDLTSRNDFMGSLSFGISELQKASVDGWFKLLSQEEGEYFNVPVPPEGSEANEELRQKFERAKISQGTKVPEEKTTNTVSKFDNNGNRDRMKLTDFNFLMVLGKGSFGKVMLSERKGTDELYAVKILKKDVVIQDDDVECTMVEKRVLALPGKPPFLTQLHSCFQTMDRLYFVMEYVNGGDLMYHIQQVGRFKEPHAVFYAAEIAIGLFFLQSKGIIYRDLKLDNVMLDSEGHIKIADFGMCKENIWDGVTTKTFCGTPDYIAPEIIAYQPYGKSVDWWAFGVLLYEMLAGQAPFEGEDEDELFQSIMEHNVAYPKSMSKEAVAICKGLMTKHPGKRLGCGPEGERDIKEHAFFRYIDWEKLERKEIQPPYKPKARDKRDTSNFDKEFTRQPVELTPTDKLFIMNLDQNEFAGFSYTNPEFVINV

[10] = test system: Gemcitabine-resistant PANC-1; assay: Induction of cell cycle arrest in human Gemcitabine-resistant PANC-1 cells assessed as downregulation of CDK2 protein expression level at 40 to 160 nM incubated for 24 hrs by Western blot analysis; assay type: functional, cell-based; conditions: dose 40-160 nM
[11] = Toxicity in male BALB/c nude mouse xenografted with human Gemcitabine-resistant PANC-1 cells at 10 mg/kg, ip administered three times in a week for 20 days; assay type: organism-based; conditions: in vivo, 480 h, time 20 day
[12] = test system: Gemcitabine-resistant PANC-1; assay: Downregulation of PKCbeta1expression in human Gemcitabine-resistant PANC-1 cells at 100 nM incubated for 24 hrs by Western blot analysis; assay type: functional, cell-based
[13] = test system: Gemcitabine-resistant PANC-1; assay: Cell cycle distribution in human Gemcitabine-resistant PANC-1 cells assessed as G0-G1 phase cells at 40 nM incubated for 24 hrs by RNase/PI staining based flow cytometric analysis (reference value: 45.21 %); assay type: functional
[14] = target: T1, Protein kinase C beta type; assay: Induction of thermal stabilization of PKCbeta1 in human Gemcitabine-resistant PANC-1 cells at 10 uM incubated for 1 hrs at 40 to 65 degreeC by CETSA; assay type: cell-based
Target sequence in this assay (P05771 2-671 limits assumed): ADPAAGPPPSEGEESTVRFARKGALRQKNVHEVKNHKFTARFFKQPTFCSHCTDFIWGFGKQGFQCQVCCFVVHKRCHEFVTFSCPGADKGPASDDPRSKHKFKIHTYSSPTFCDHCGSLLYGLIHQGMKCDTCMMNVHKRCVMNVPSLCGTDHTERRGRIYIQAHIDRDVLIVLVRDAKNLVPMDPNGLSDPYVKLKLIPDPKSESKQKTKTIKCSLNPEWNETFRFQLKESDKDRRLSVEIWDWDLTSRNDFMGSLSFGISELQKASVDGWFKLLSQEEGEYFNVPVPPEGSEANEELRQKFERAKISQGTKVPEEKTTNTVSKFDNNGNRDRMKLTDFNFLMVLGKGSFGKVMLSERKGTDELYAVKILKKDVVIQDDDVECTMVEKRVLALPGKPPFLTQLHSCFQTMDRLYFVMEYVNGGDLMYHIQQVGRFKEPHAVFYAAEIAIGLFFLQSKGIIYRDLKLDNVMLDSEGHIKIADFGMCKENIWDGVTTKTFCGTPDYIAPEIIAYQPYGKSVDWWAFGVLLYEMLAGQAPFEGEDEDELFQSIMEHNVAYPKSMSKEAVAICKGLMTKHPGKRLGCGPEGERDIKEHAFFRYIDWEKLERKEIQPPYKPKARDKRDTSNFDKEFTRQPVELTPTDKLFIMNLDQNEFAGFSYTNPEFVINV

[15] = test system: Gemcitabine-resistant PANC-1; assay: Effect on STAT5 expression in human Gemcitabine-resistant PANC-1 cells at 40 to 160 nM by Western blot analysis; assay type: functional, cell-based; conditions: dose 40-160 nM
[16] = test system: Gemcitabine-resistant PANC-1; assay: Effect on p70S6K expression in human Gemcitabine-resistant PANC-1 cells at 40 to 160 nM by Western blot analysis; assay type: functional, cell-based; conditions: dose 40-160 nM
[17] = test system: Gemcitabine-resistant PANC-1; assay: Downregulation of PKCbeta1 expression in human Gemcitabine-resistant PANC-1 cells at 40 to 160 nM incubated for 24 hrs by Western blotting; assay type: functional, cell-based; conditions: dose 40-160 nM
[18] = test system: Gemcitabine-resistant PANC-1; assay: Cytotoxicity against human Gemcitabine-resistant PANC-1 cells assessed as inhibition of cell growth incubated for 72 hrs by SRB assay; assay type: functional, cell-based; conditions: Gemcitabine-resistant PANC-1, 72 h
[19] = test system: Gemcitabine-resistant PANC-1; assay: Downregulation of PKCepsilon expression in human Gemcitabine-resistant PANC-1 cells at 40 to 160 nM incubated for 24 hrs by Western blotting; assay type: functional, cell-based; conditions: dose 40-160 nM
[20] = test system: Gemcitabine-resistant PANC-1; assay: Induction of apoptosis in human Gemcitabine-resistant PANC-1 cells assessed as total cell death at 40 nM incubated for 48 hrs by Annexin V-FITC/PI staining based flow cytometric analysis relative to control; assay type: functional
[21] = Cytotoxicity against HPDE6c7 cells assessed as inhibition of cell growth incubated for 72 hrs by SRB assay; assay type: toxicity, cell-based; conditions: human
[22] = test system: Gemcitabine-resistant PANC-1; assay: Downregulation of PKCalpha expression in human Gemcitabine-resistant PANC-1 cells at 40 to 160 nM incubated for 24 hrs by Western blotting; assay type: functional, cell-based; conditions: dose 40-160 nM
[23] = test system: Gemcitabine-resistant PANC-1; assay: Induction of apoptosis in human Gemcitabine-resistant PANC-1 cells assessed as upregulation of cleaved PARP level at 160 nM incubated for 48 hrs by Western blot analysis; assay type: functional, cell-based
[24] = test system: Gemcitabine-resistant PANC-1; assay: Cell cycle distribution in human Gemcitabine-resistant PANC-1 cells assessed as S phase cells at 40 nM incubated for 24 hrs by RNase/PI staining based flow cytometric analysis (reference value: 17.32 %); assay type: functional
[25] = test system: Gemcitabine-resistant PANC-1; assay: Effect on PRAS40 expression in human Gemcitabine-resistant PANC-1 cells at 40 to 160 nM by Western blot analysis; assay type: functional, cell-based; conditions: dose 40-160 nM
[26] = test system: Gemcitabine-resistant PANC-1; assay: Cell cycle distribution in human Gemcitabine-resistant PANC-1 cells assessed as G2/M phase cells at 160 nM incubated for 24 hrs by RNase/PI staining based flow cytometric analysis (reference value: 37.53 %); assay type: functional
[27] = test system: Gemcitabine-resistant PANC-1; assay: Cell cycle distribution in human Gemcitabine-resistant PANC-1 cells assessed as S phase cells at 80 nM incubated for 24 hrs by RNase/PI staining based flow cytometric analysis (reference value: 17.32 %); assay type: functional
[28] = test system: Gemcitabine-resistant PANC-1; assay: In vivo inhibition of PKCbeta1 in male BALB/c nude mouse xenografted with human Gemcitabine-resistant PANC-1 cells assessed as reduction in PKCbeta1 expression in tumor at 10 mg/kg, ip administered three times in a week for 20 days by Western blot analysis; assay type: functional, organism-based; conditions: time 20.0 day
[29] = test system: Gemcitabine-resistant PANC-1; assay: Induction of cell cycle arrest in human Gemcitabine-resistant PANC-1 cells assessed as upregulation of p27 protein expression level at 40 to 160 nM incubated for 24 hrs by Western blot analysis; assay type: functional, cell-based; conditions: dose 40-160 nM
[30] = test system: Gemcitabine-resistant PANC-1; assay: Cell cycle distribution in human Gemcitabine-resistant PANC-1 cells assessed as G2/M phase cells at 40 nM incubated for 24 hrs by RNase/PI staining based flow cytometric analysis (reference value: 37.53 %); assay type: functional
[31] = test system: Gemcitabine-resistant PANC-1; assay: Induction of apoptosis in human Gemcitabine-resistant PANC-1 cells assessed as upregulation of cleaved caspase-8 level at 160 nM incubated for 48 hrs by Western blot analysis; assay type: functional, cell-based
PANC-1 = assay: Antiproliferative activity against human PANC-1 cells transfected with PKCbeta1 siRNA assessed as reduction in cell viability at 0.016 to 10 uM incubated for 72 hrs by MTT assay; assay type: functional, cell-based; conditions: dose 0.016-10 µM

CC(=O)Oc1ccc2[nH]c3c(c2c1)CCN1C(=O)c2ccccc2N(C)[C@H]31
Activity [1]: 20.63% | Activity [2]: 44.89% | Activity [3]: inactive | Activity [4]: Active | Activity [5]: Active | Activity [6]: Active | Activity [7]: Active | Activity [8]: Active | IC50 [9]: 117 nM | Activity [10]: Active | Activity [11]: Non-Toxic | Activity [12]: Active | Activity [13]: 42.91% | Activity [14]: Active | Activity [15]: inactive | Activity [16]: inactive | Activity [17]: Active | IC50 [18]: 70 nM | Activity [19]: inactive | Activity [20]: 15.83% | IC50 at 72 h [21]: 2950 nM | Activity [22]: inactive | Activity [23]: Active | Activity [24]: 17.71% | Activity [25]: inactive | Activity [26]: 58.51% | Activity [27]: 15.94% | inhibition [28]: Active | Activity [29]: Active | Activity [30]: 39.38% | Activity [31]: Active | Activity (PANC-1): inactive
